# According to US20160271263A1 (Novo Nordisk A/S, priority 2010, published 2016):
# Numbered stars: 1 amine (or outer) side, 2 acyl side, 3 side chain; on linkers, the order of the positions; unused ones are H or OH. Side chains are listed from the residue outwards. Peptide text beside a SMILES is read from it. * marks the point of attachment. C18 diacid = O=C(O)CCCCCCCCCCCCCCCCC(=O)*; γGlu = O=C(O)[C@H](CCC(=O)[*:2])N[*:1]; AEEA = NCCOCCOCC(=O)O
# Target: glucagon receptor (Homo sapiens, UniProt P47871)
# Sequence (P47871 26-477): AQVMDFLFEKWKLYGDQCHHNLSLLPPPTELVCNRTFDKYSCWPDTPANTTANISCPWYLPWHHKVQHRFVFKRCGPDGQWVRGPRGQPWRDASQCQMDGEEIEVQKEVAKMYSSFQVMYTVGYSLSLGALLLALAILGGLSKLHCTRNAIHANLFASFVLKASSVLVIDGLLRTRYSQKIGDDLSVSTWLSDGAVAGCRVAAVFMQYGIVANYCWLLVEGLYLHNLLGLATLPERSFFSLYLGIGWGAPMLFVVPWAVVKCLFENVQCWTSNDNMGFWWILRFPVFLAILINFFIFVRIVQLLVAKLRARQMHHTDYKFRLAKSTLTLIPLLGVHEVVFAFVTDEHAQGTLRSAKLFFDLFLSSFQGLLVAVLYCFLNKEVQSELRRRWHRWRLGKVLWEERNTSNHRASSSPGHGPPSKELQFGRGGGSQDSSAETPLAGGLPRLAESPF
# Test: cell-based
row,SMILES,EC50 [nM]
1,"CC(C)C[C@H](NC(=O)[C@H](Cc1ccc(O)cc1)NC(=O)[C@H](CCCCN)NC(=O)[C@H](CO)NC(=O)[C@H](Cc1ccc(O)cc1)NC(=O)[C@H](CC(=O)O)NC(=O)[C@H](CO)NC(=O)[C@@H](NC(=O)[C@H](Cc1ccccc1)NC(=O)[C@@H](NC(=O)CNC(=O)[C@H](CCC(N)=O)NC(=O)[C@H](CO)NC(=O)[C@@H](N)Cc1c[nH]cn1)[C@@H](C)O)[C@@H](C)O)C(=O)N[C@@H](CC(=O)O)C(=O)N[C@@H](CCCCNC(=O)CC[C@H](NC(=O)CC[C@H](NC(=O)COCCOCCNC(=O)COCCOCCNC(=O)CC[C@H](NC(=O)CCCCCCCCCCCCCCCCC(=O)O)C(=O)O)C(=O)O)C(=O)O)C(=O)N[C@@H](CCCNC(=N)N)C(=O)N[C@@H](CCCNC(=N)N)C(=O)N[C@@H](C)C(=O)N[C@@H](CCC(N)=O)C(=O)N[C@@H](CC(=O)O)C(=O)N[C@@H](Cc1ccccc1)C(=O)N[C@H](C(=O)N[C@@H](CCC(N)=O)C(=O)N[C@@H](Cc1c[nH]c2ccccc12)C(=O)N[C@@H](CC(C)C)C(=O)N[C@@H](CC(C)C)C(=O)N[C@@H](CC(N)=O)C(=O)N[C@H](C(=O)O)[C@@H](C)O)C(C)C [Example 70, N^ε16-[(4S)-4-carboxy-4-[[(4S)-4-carboxy-4-[[2-[2-[2-[[2-[2-[2-[[(4S)-4-carboxy-4-(17-carboxyheptadecanoylamino)butanoyl]amino]ethoxy]ethoxy]acetyl]amino]ethoxy]ethoxy]acetyl]amino]butanoyl]amino]butanoyl]-[Lys^16,Leu^27]-Glucagon] (H-HSQGTFTSDYSKYLDK([γGlu-γGlu-AEEA-AEEA-γGlu-C18 diacid])RRAQDFVQWLLNT-OH; N-terminus and C-terminus assumed)",0.105
2,CC(C)C[C@H](NC(=O)[C@H](Cc1ccc(O)cc1)NC(=O)[C@H](CCCNC(=N)N)NC(=O)[C@H](CO)NC(=O)[C@H](Cc1ccc(O)cc1)NC(=O)[C@H](CC(=O)O)NC(=O)[C@H](CO)NC(=O)[C@@H](NC(=O)[C@H](Cc1ccccc1)NC(=O)[C@@H](NC(=O)CNC(=O)[C@H](CCC(N)=O)NC(=O)[C@H](CO)NC(=O)[C@@H](N)Cc1c[nH]cn1)[C@@H](C)O)[C@@H](C)O)C(=O)N[C@@H](CC(=O)O)C(=O)N[C@@H](CO)C(=O)N[C@@H](CCCNC(=N)N)C(=O)N[C@@H](CCCNC(=N)N)C(=O)N[C@@H](C)C(=O)N[C@@H](CCC(N)=O)C(=O)N[C@@H](CC(=O)O)C(=O)N[C@@H](Cc1ccccc1)C(=O)N[C@H](C(=O)N[C@@H](CCCCNC(=O)COCCOCCNC(=O)COCCOCCNC(=O)CC[C@H](NC(=O)CCCCCCCCCCCCCCCCC(=O)O)C(=O)O)C(=O)N[C@@H](Cc1c[nH]c2ccccc12)C(=O)N[C@@H](CC(C)C)C(=O)N[C@@H](CC(C)C)C(=O)N[C@@H](CC(N)=O)C(=O)N[C@H](C(=O)O)[C@@H](C)O)C(C)C [Example 47] (H-HSQGTFTSDYSRYLDSRRAQDFVK([AEEA-AEEA-γGlu-C18 diacid])WLLNT-OH; N-terminus and C-terminus assumed),0.109
3,"CC(C)C[C@H](NC(=O)[C@H](Cc1ccc(O)cc1)NC(=O)[C@H](CCCCN)NC(=O)[C@H](CO)NC(=O)[C@H](Cc1ccc(O)cc1)NC(=O)[C@H](CC(=O)O)NC(=O)[C@H](CO)NC(=O)[C@@H](NC(=O)[C@H](Cc1ccccc1)NC(=O)[C@@H](NC(=O)CNC(=O)[C@H](CCC(N)=O)NC(=O)[C@H](CO)NC(=O)[C@@H](N)Cc1c[nH]cn1)[C@@H](C)O)[C@@H](C)O)C(=O)N[C@@H](CC(=O)O)C(=O)N[C@@H](CO)C(=O)N[C@@H](CCCNC(=N)N)C(=O)N[C@@H](CCCNC(=N)N)C(=O)N[C@@H](C)C(=O)N[C@@H](CCC(N)=O)C(=O)N[C@@H](CC(=O)O)C(=O)N[C@@H](Cc1ccccc1)C(=O)N[C@H](C(=O)N[C@@H](CCC(N)=O)C(=O)N[C@@H](Cc1c[nH]c2ccccc12)C(=O)N[C@@H](CC(C)C)C(=O)N[C@@H](CC(C)C)C(=O)N[C@@H](CCCCNC(=O)CC[C@H](NC(=O)CC[C@H](NC(=O)CC[C@H](NC(=O)CCCCCCCCCCCCCCCCC(=O)O)C(=O)O)C(=O)O)C(=O)O)C(=O)N[C@H](C(=O)O)[C@@H](C)O)C(C)C [Example 79, N^ε28-[(4S)-4-carboxy-4-[[(4S)-4-carboxy-4-[[(4S)-4-carboxy-4-(17-carboxyheptadecanoylamino)butanoyl]amino]butanoyl]amino]butanoyl]-[Leu^27,Lys^28]-Glucagon]",0.141
4,"CC(C)C[C@H](NC(=O)[C@H](Cc1ccc(O)cc1)NC(=O)[C@H](CCCCN)NC(=O)[C@H](CO)NC(=O)[C@H](Cc1ccc(O)cc1)NC(=O)[C@H](CC(=O)O)NC(=O)[C@H](CO)NC(=O)[C@@H](NC(=O)[C@H](Cc1ccccc1)NC(=O)[C@@H](NC(=O)CNC(=O)[C@H](CCC(N)=O)NC(=O)[C@H](CO)NC(=O)[C@@H](N)Cc1c[nH]cn1)[C@@H](C)O)[C@@H](C)O)C(=O)N[C@@H](CC(=O)O)C(=O)N[C@@H](CO)C(=O)N[C@@H](CCCNC(=N)N)C(=O)N[C@@H](CCC(N)=O)C(=O)N[C@@H](C)C(=O)N[C@@H](CCC(N)=O)C(=O)N[C@@H](CCC(=O)O)C(=O)N[C@@H](Cc1ccccc1)C(=O)N[C@H](C(=O)N[C@@H](CCCCNC(=O)COCCOCCNC(=O)COCCOCCNC(=O)CC[C@H](NC(=O)CCCCCCCCCCCCCCCCC(=O)O)C(=O)O)C(=O)N[C@@H](Cc1c[nH]c2ccccc12)C(=O)N[C@@H](CC(C)C)C(=O)N[C@@H](CC(C)C)C(=O)N[C@@H](CC(N)=O)C(=O)N[C@H](C(=O)O)[C@@H](C)O)C(C)C [Example 49, N^ε24-([2-[2-[2-[[2-[2-[2-[[(4S)-5-hydroxy-4-[(18-hydroxy-18-oxooctadecanoyl)amino]-5-oxopentanoyl]amino]ethoxy]ethoxy]acetyl]amino]ethoxy]ethoxy]acetyl]) [Gln^18,Glu^21,Lys^24,Leu^27] Glucagon] (H-HSQGTFTSDYSKYLDSRQAQEFVK([AEEA-AEEA-γGlu-C18 diacid])WLLNT-OH; N-terminus and C-terminus assumed)",0.15

# The next compounds have a lower EC50 than those just listed; values first:
row,EC50 [nM],SMILES
1,0.022,CC(C)C[C@H](NC(=O)[C@H](Cc1ccc(O)cc1)NC(=O)[C@H](CCCCN)NC(=O)[C@H](CO)NC(=O)[C@H](Cc1ccc(O)cc1)NC(=O)[C@H](CC(=O)O)NC(=O)[C@H](CO)NC(=O)[C@@H](NC(=O)[C@H](Cc1ccccc1)NC(=O)[C@@H](NC(=O)CNC(=O)[C@H](CCC(N)=O)NC(=O)[C@H](CO)NC(=O)[C@@H](N)Cc1c[nH]cn1)[C@@H](C)O)[C@@H](C)O)C(=O)N[C@@H](CC(=O)O)C(=O)N[C@@H](CO)C(=O)N[C@@H](CCCNC(=N)N)C(=O)N[C@@H](CCCNC(=N)N)C(=O)N[C@@H](C)C(=O)N[C@@H](CCC(N)=O)C(=O)N[C@@H](CC(=O)O)C(=O)N[C@@H](Cc1ccccc1)C(=O)N[C@H](C(=O)N[C@@H](CCC(N)=O)C(=O)N[C@@H](Cc1c[nH]c2ccccc12)C(=O)N[C@@H](CC(C)C)C(=O)N[C@@H](CC(C)C)C(=O)N[C@@H](CCCCNC(=O)COCCOCCNC(=O)COCCOCCNC(=O)CC[C@H](NC(=O)CCCCCCCCCCCCCCCCC(=O)O)C(=O)O)C(=O)N[C@H](C(=O)O)[C@@H](C)O)C(C)C [Example 8]
2,0.02,CC(C)C[C@H](NC(=O)[C@H](Cc1ccc(O)cc1)NC(=O)[C@H](CCCCN)NC(=O)[C@H](CO)NC(=O)[C@H](Cc1ccc(O)cc1)NC(=O)[C@H](CC(=O)O)NC(=O)[C@H](CO)NC(=O)[C@@H](NC(=O)[C@H](Cc1ccccc1)NC(=O)[C@@H](NC(=O)CNC(=O)[C@H](CCC(N)=O)NC(=O)[C@H](CO)NC(=O)[C@@H](N)Cc1c[nH]cn1)[C@@H](C)O)[C@@H](C)O)C(=O)N[C@@H](CC(=O)O)C(=O)N[C@@H](CCCCNC(=O)COCCOCCNC(=O)COCCOCCNC(=O)CC[C@H](NC(=O)CCCCCCCCCCCCCCCCC(=O)O)C(=O)O)C(=O)N[C@@H](CCCCN)C(=O)N[C@@H](CCCNC(=N)N)C(=O)N[C@@H](C)C(=O)N[C@@H](CCC(N)=O)C(=O)N[C@@H](CCC(=O)O)C(=O)N[C@@H](Cc1ccccc1)C(=O)N[C@H](C(=O)N[C@@H](CCC(N)=O)C(=O)N[C@@H](Cc1c[nH]c2ccccc12)C(=O)N[C@@H](CC(C)C)C(=O)N[C@@H](CC(C)C)C(=O)N[C@@H](CC(N)=O)C(=O)N[C@H](C(=O)O)[C@@H](C)O)C(C)C [Example 5] (H-HSQGTFTSDYSKYLDK([AEEA-AEEA-γGlu-C18 diacid])KRAQEFVQWLLNT-OH; N-terminus and C-terminus assumed)
3,0.007,"CC(C)C[C@H](NC(=O)[C@H](Cc1ccc(O)cc1)NC(=O)[C@H](CCCCN)NC(=O)[C@H](CO)NC(=O)[C@H](Cc1ccc(O)cc1)NC(=O)[C@H](CC(=O)O)NC(=O)[C@H](CO)NC(=O)[C@@H](NC(=O)[C@H](Cc1ccccc1)NC(=O)[C@@H](NC(=O)CNC(=O)[C@H](CCC(N)=O)NC(=O)[C@H](CO)NC(=O)[C@@H](N)Cc1c[nH]cn1)[C@@H](C)O)[C@@H](C)O)C(=O)N[C@@H](CC(=O)O)C(=O)N[C@@H](CO)C(=O)N[C@@H](CCCCN)C(=O)N[C@@H](CCCNC(=N)N)C(=O)N[C@@H](C)C(=O)N[C@@H](CCC(N)=O)C(=O)N[C@@H](CCC(=O)O)C(=O)N[C@@H](Cc1ccccc1)C(=O)N[C@H](C(=O)N[C@@H](CCC(N)=O)C(=O)N[C@@H](Cc1c[nH]c2ccccc12)C(=O)N[C@@H](CC(C)C)C(=O)N[C@@H](CCCCNC(=O)COCCOCCNC(=O)COCCOCCNC(=O)CC[C@H](NC(=O)CCCCCCCCCCCCCCCCC(=O)O)C(=O)O)C(=O)N[C@@H](CC(N)=O)C(=O)N[C@H](C(N)=O)[C@@H](C)O)C(C)C [Example 45, N^ε27 ([2-[2-[2-[[2-[2-[2-[[(4S)-5-hydroxy-4-[(18-hydroxy-18-oxooctadecanoyl)amino]-5-oxopentanoyl]amino]ethoxy]ethoxy]acetyl]amino]ethoxy]ethoxy]acetyl]) [Lys^17, Glu^21, Lys^27] Glucagon peptide amide] (H-HSQGTFTSDYSKYLDSKRAQEFVQWLK([AEEA-AEEA-γGlu-C18 diacid])NT-NH2; N-terminus assumed)"
